Structures can show the parent of a compound that is named as a salt. Where two headings read alike, the source gives them in different places.

The source of these data is patent EP0255485A2, “Transdermal compositions” (priority 1986, dated 1988).

The conditions of series [1]: for P Px*: Px = permeability coefficient of the drug from propylene glycol solution; for Flux^+: expressed in terms of procaterol hydrochloride, concentration could not be measured.
Another series can be described thus: in vitro. Particulars: mouse.
Series [2] can be described thus: Extrapolated delivery through human skin, assuming 1/5 the permeability of mouse skin. In kind it is in vitro ADME. Here is the method: The permeation of the compounds from the mixture of propylene glycol triacetin was negligible. The concentration of each analgesic can be increased to 3% or 4% in the donor solution and corresponding increases in flux can be expected. […] A usual dose for oxymorphone and hydromorphone is about 6 to 10 mg per day in humans.
Assuming the permeability of human skin to be 1/5 that of mouse skin, a daily flux of 0.68 mg can be achieved in man. The maximum daily dose in man is approximated to be 0.2 mg.

Setting [3] is: Vehicle LA:TA:PG 20:50:30, Conc'n. 21.57 mg/ml.
Where [4] appears, read: LA:PG:TA 5:30:65, 0.5 wt % analgesic, Conc. 5.5 mg/ml.
[5] abbreviates: LA:PG:TA 10:30:60, 0.5 wt % analgesic, Conc. 5.4 mg/ml.
Setting [6] is: LA:PG:TA 20:30:50, 0.5 wt % analgesic, Conc. 5.3 mg/ml.

As to `CC1CC(=O)NN=C1c1ccc(-n2ccnc2)cc1` (stereo not drawn) [Compound I Base], the “Lag Time” value in series [1] (0 % Linoleic Acid in propylene glycol, Conc'n. 26.38 mg/ml) turned out to be 6.2 h; in series [1] (10 % Linoleic Acid in propylene glycol, Conc'n. 43 mg/ml) it was 1.75 h; in series [1] (40 % Linoleic Acid in propylene glycol, Conc'n. 43 mg/ml), 1.45 h; in series [1] (80 % Linoleic Acid in propylene glycol, Conc'n. 43 mg/ml) it was 1.29 h; in series [1] (100 % Linoleic Acid, Conc'n. 31.5 mg/ml) it was 5.35 h; in series [1] (setting [3]) it was 1.91 h. The “Lag Time” value in series [1] (Vehicle LA:TG 20:80, Conc'n. 20.09 mg/ml) was determined as 5.58 h. For the same compound, the Flux is listed as 0.4 ug/cm^2/h in series [1] (0 % Linoleic Acid in propylene glycol, Conc'n. 26.38 mg/ml, expressed as hydrochloride salt); 492 ug/cm^2/h in series [1] (10 % Linoleic Acid in propylene glycol, Conc'n. 43 mg/ml, expressed as hydrochloride salt); 337.3 ug/cm^2/h in series [1] (40 % Linoleic Acid in propylene glycol, Conc'n. 43 mg/ml, expressed as hydrochloride salt); 148.5 ug/cm^2/h in series [1] (80 % Linoleic Acid in propylene glycol, Conc'n. 43 mg/ml, expressed as hydrochloride salt); 24.5 ug/cm^2/h in series [1] (100 % Linoleic Acid, Conc'n. 31.5 mg/ml, expressed as hydrochloride salt); 130.14 ug/cm^2/h in series [1] (setting [3]). Moreover, the Flux in series [1] (Vehicle LA:TG 20:80 (TG = tetraglycol), Conc'n. 20.09 mg/ml) amounted to 186.69 ug/cm^2/h. In addition, the “P Px*” value was 1 in series [1] (0 % Linoleic Acid in propylene glycol); 755 in series [1] (10 % Linoleic Acid in propylene glycol); 517 in series [1] (40 % Linoleic Acid in propylene glycol); 227 in series [1] (80 % Linoleic Acid in propylene glycol); 51 in series [1] (100 % Linoleic Acid); 400 in series [1] (Vehicle LA:TA:PG 20:50:30). Moreover, the “P Px*” value in series [1] (Vehicle LA:TG 20:80) came out at 614. For the same compound, the Papp stood at 0.0042 ×10⁻⁶ cm/s in the series “in vitro” (Permeability Coefficient (P), 0 % Linoleic Acid in propylene glycol, Conc'n. 26.38 mg/ml); 3.18 ×10⁻⁶ cm/s in “in vitro” (Permeability Coefficient (P), 10 % Linoleic Acid in propylene glycol, Conc'n. 43 mg/ml); 2.18 ×10⁻⁶ cm/s in “in vitro” (Permeability Coefficient (P), 40 % Linoleic Acid in propylene glycol, Conc'n. 43 mg/ml); 0.96 ×10⁻⁶ cm/s in “in vitro” (Permeability Coefficient (P), 80 % Linoleic Acid in propylene glycol, Conc'n. 43 mg/ml); 0.22 ×10⁻⁶ cm/s in the series “in vitro” (Permeability Coefficient (P), 100 % Linoleic Acid, Conc'n. 31.5 mg/ml); 1.68 ×10⁻⁶ cm/s in “in vitro” (Permeability Coefficient (P), Vehicle LA:TA:PG 20:50:30, Conc'n. 21.57 mg/ml). Also, the Papp in “in vitro” (Permeability Coefficient (P), Vehicle LA:TG 20:80, Conc'n. 20.09 mg/ml) is 2.58 ×10⁻⁶ cm/s; in “in vitro” (permeability coefficient) it was 7.6 ×10⁻⁶ cm/s.

Regarding `CN1CC[C@]23c4c5ccc(O)c4O[C@H]2C(=O)CC[C@@]3(O)[C@H]1C5` [OX, Oxymorphone], the “delivered from a 10 cm² patch in humans” value in series [2] (loading concentration increased to 2%, four-fold increase in flux expected) is “about 12.8 mg/day”. The “delivery from a 10 cm² patch through human skin” value in series [2] (loading concentration of 0.5%, assuming 1/5 the permeability) is “about 3.2 mg/day”. Also, the values for the Flux in series [1] (setting [4]), in series [1] (setting [5]) and in series [1] (setting [6]) were 40.0 ug/cm^2/hr, 51.5 ug/cm^2/hr and 66.6 ug/cm^2/hr, respectively. The “Lag Time” value in series [1] (setting [4]) is 7.6 h; in series [1] (setting [5]), 4.1 h; in series [1] (setting [6]) it was 3.5 h. In addition, in series [1] (loading concentration of 0.5%, equivalent of flux 66.6 ug/cm²/hr), the “delivery from a 10 cm² patch through hairless mouse skin” value is reported as “about 16 mg/day”. Further, the Papp in the series “in vitro” (PX10^6, LA:PG:TA 5:30:65, 0.5 wt % analgesic, Conc. 5.5 mg/ml) came to 2 ×10⁻⁶ cm/s; in the series “in vitro” (PX10^6, LA:PG:TA 10:30:60, 0.5 wt % analgesic, Conc. 5.4 mg/ml) it was 2.7 ×10⁻⁶ cm/s; in the series “in vitro” (PX10^6, LA:PG:TA 20:30:50, 0.5 wt % analgesic, Conc. 5.3 mg/ml), 3.5 ×10⁻⁶ cm/s.

In the case of `CCC(NC(C)C)C(O)c1ccc(O)c2[nH]c(=O)ccc12` (stereo not drawn) [Procaterol Hydrochloride], the “daily flux in man” value in series [2] is given as 0.68 mg. In addition, in series [1] (Solvent System LA:PG:TA 20:30:50, approximate concentration 5 mg/ml), the “Lag Time” value came out at 4.0 h. Besides, the Flux in series [1] (Solvent System LA:PG:TA 20:30:50, approximate concentration 5 mg/ml, Hydrochloride) is listed as 14 ug/cm^2/h; in series [1] (Solvent System LA:PG:TA 20:30:50, approximate concentration 5 mg/ml, listed as procaterol hydrochloride, Hydrochloride) it was “about 14 ug/cm^2/h”. Moreover, in series [1] (formulation containing LA:PG:TA (20:30:50)), the flux value came to 3.36 mg/day/10 cm². Moreover, the apparent permeability coefficient (Papp) in the series “in vitro” (P, Solvent System LA:PG:TA 20:30:50, approximate concentration 5 mg/ml) is 0.77 ×10⁻⁶ cm/s.

On to `CCC(NC(C)C)C(O)c1ccc(O)c2[nH]c(=O)ccc12` (stereo not drawn) [Procaterol], for which the Lag Time was 5.5 h in series [1] (Ratio of LA:TA:PG 5:85:10); 4.8 h in series [1] (Ratio of LA:TA:PG 10:80:10); 4.05 h in series [1] (Ratio of LA:TA:PG 15:75:10); 4.4 h in series [1] (Ratio of LA:TA:PG 20:50:30); 4.8 h in series [1] (Ratio of LA:TA:PG 20:75:5); 6 h in series [1] (Vehicle Ethyl Linoleate:PG:TA 10:5:85, Drug Conc. 0.855 mg/ml). Moreover, the “Lag Time” value in series [1] (Vehicle Ethyl Linoleate:TG 10:90, Drug Conc. 12.29 mg/ml) is 8 h; in series [1] (Vehicle LA:TA:PG 20:50:30, Procaterol Conc. 40 mg/ml), 1.26 h; in series [1] (Vehicle LA:TEC:PG 10:70:20, Drug Conc. 23.03 mg/ml), 14.7 h; in series [1] (Vehicle LA:TEC:PG 10:80:10, Drug Conc. 16.9 mg/ml) it was 14.7 h; in series [1] (Vehicle LA:TEC:PG 20:50:30, Drug Conc. 4.32 mg/ml), 11.2 h; in series [1] (Vehicle LA:TEC:PG 20:50:30, Drug Conc. 44.7 mg/ml), 7.3 h. For the same compound, the “Lag Time” value in series [1] (Vehicle LA:TEC:PG 20:60:20, Drug Conc. 19.35 mg/ml) was determined as 4.9 h; in series [1] (Vehicle LNA:PG:TA 20:15:65, Drug Conc. 8.15 mg/ml), 2 h; in series [1] (Vehicle Oleic Acid:PG:TA 20:30:50, Drug Conc. 15.89 mg/ml) it was 1.8 h. The “Flux^+” value worked out at 23.1 ug/cm^2/h in series [1] (Ratio of LA:TA:PG 5:85:10); 44.2 ug/cm^2/h in series [1] (Ratio of LA:TA:PG 10:80:10); 53.2 ug/cm^2/h in series [1] (Ratio of LA:TA:PG 15:75:10); 56.3 ug/cm^2/h in series [1] (Ratio of LA:TA:PG 20:50:30); 33.9 ug/cm^2/h in series [1] (Ratio of LA:TA:PG 20:75:5). In addition, the Flux in series [1] (Vehicle Ethyl Linoleate:PG:TA 10:5:85, Drug Conc. 0.855 mg/ml, expressed as procaterol hydrochloride) is reported as 9.60 ug/cm^2/h; in series [1] (Vehicle Ethyl Linoleate:TG 10:90, Drug Conc. 12.29 mg/ml, expressed as procaterol hydrochloride) it was 36.27 ug/cm^2/h; in series [1] (Vehicle LA:TA:PG 20:50:30, Procaterol Conc. 40 mg/ml, expressed as hydrochloride salt), 158.6 ug/cm^2/h; in series [1] (Vehicle LNA:PG:TA 20:15:65 (LNA = Linolenic Acid), Drug Conc. 8.15 mg/ml, expressed as procaterol hydrochloride), 76.27 ug/cm^2/h; in series [1] (Vehicle Oleic Acid:PG:TA 20:30:50, Drug Conc. 15.89 mg/ml, expressed as procaterol hydrochloride) it was 171.76 ug/cm^2/h. For the same compound, the “Flux*” value in series [1] (Vehicle LA:TEC:PG 10:70:20, Drug Conc. 23.03 mg/ml, expressed as hydrochloride salt) is reported as 33.5 ug/cm^2/h; in series [1] (Vehicle LA:TEC:PG 10:80:10, Drug Conc. 16.9 mg/ml, expressed as hydrochloride salt), 32.0 ug/cm^2/h; in series [1] (Vehicle LA:TEC:PG 20:50:30, Drug Conc. 4.32 mg/ml, expressed as hydrochloride salt), 8.5 ug/cm^2/h; in series [1] (Vehicle LA:TEC:PG 20:50:30, Drug Conc. 44.7 mg/ml, expressed as hydrochloride salt), 65.8 ug/cm^2/h; in series [1] (Vehicle LA:TEC:PG 20:60:20, Drug Conc. 19.35 mg/ml, expressed as hydrochloride salt), 46.0 ug/cm^2/h. Moreover, the Papp in the series “in vitro” (P, Vehicle Ethyl Linoleate:PG:TA 10:5:85, Drug Conc. 0.855 mg/ml) worked out at 3.12 ×10⁻⁶ cm/s; in the series “in vitro” (P, Vehicle Ethyl Linoleate:TG 10:90, Drug Conc. 12.29 mg/ml), 0.82 ×10⁻⁶ cm/s; in “in vitro” (P, Vehicle LA:TA:PG 20:50:30, Procaterol Conc. 40 mg/ml), 1.1 ×10⁻⁶ cm/s; in the series “in vitro” (P, Vehicle LA:TEC:PG 10:70:20, Drug Conc. 23.03 mg/ml) it was 0.404 ×10⁻⁶ cm/s; in “in vitro” (P, Vehicle LA:TEC:PG 10:80:10, Drug Conc. 16.9 mg/ml), 0.526 ×10⁻⁶ cm/s; in the series “in vitro” (P, Vehicle LA:TEC:PG 20:50:30, Drug Conc. 4.32 mg/ml), 0.547 ×10⁻⁶ cm/s. Further, the apparent permeability coefficient (Papp) in the series “in vitro” (P, Vehicle LA:TEC:PG 20:50:30, Drug Conc. 44.7 mg/ml) is 0.41 ×10⁻⁶ cm/s; in “in vitro” (P, Vehicle LA:TEC:PG 20:60:20, Drug Conc. 19.35 mg/ml) it was 0.66 ×10⁻⁶ cm/s; in the series “in vitro” (P, Vehicle LNA:PG:TA 20:15:65, Drug Conc. 8.15 mg/ml), 2.6 ×10⁻⁶ cm/s; in the series “in vitro” (P, Vehicle Oleic Acid:PG:TA 20:30:50, Drug Conc. 15.89 mg/ml), 3 ×10⁻⁶ cm/s.
